Series [1] deals with Myzus persicae. Briefly: Myzus persicae spray test (Chinese cabbage leaf discs). Particulars: application rate 500 g/ha, after 6 days. The class given is in vivo. The method, then:
Myzus persicae—Spray Test Solvent: 78 parts by weight of acetone • • 1.5 parts by weight of dimethylformamide Emulsifier: alkylaryl polyglycol ether
(§1) To produce a suitable active ingredient formulation, 1 part by weight of active ingredient is dissolved with the stated parts by weight of solvent and made up with water containing an emulsifier concentration of 1000 ppm until the desired concentration is attained. To produce further test concentrations, the formulation is diluted with emulsifier-containing water.
Discs of Chinese cabbage leaves (Brassica pekinensis) infested by all stages of the green peach aphid (Myzus persicae) are sprayed with an active ingredient formulation of the desired concentration.
After 6 days, the efficacy in % is determined. 100% means that all the aphids have been killed; 0% means that no aphids have been killed.

The subject of a further series is Diabrotica balteata. Briefly: Diabrotica balteata spray test. Format: in vivo. As to conditions: application rate 160 μg/well, wheat grains with beetle larvae, after 7 days. The method, then: Diabrotica balteata—Spray Test Solvent: 78 parts by weight of acetone • • 1.5 parts by weight of dimethylformamide Emulsifier: alkylaryl polyglycol ether
as §1
Pre-swollen wheat grains (Triticum aestivum) are incubated in a multiwell plate filled with agar and a little water for one day (5 seed grains per cavity). The germinated wheat grains are sprayed with an active ingredient formulation of the desired concentration. Subsequently, each cavity is infected with 10-20 beetle larvae of Diabrotica balteata.
After 7 days, the efficacy in % is determined. 100% means that all wheat plants have grown as in the untreated, uninfected control; 0% means that no wheat plant has grown.

Series [2] deals with Myzus persicae. Briefly: Myzus persicae oral test. The class given is in vivo. As to conditions: application rate 20 ppm, oral uptake through parafilm, after 5 days. The gist of the method:
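Compound dissolved in acetone, diluted with water, then mixed into IPL41 insect medium with sugar in microtitre plates under parafilm. Mixed-population green peach aphids fed through the membrane; % mortality scored after 5 days (100% = all killed).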

Series [3] is described as follows: log P by HPLC on reversed-phase column (EEC directive 79/831 Annex V.A8). The class given is physicochemical. As to conditions: for log p: HPLC on reversed-phase column (footnote a); for log p a): HPLC on reversed-phase column. A digest of the protocol: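 Determined per EEC directive 79/831 Annex V.A8 by HPLC on a reversed-phase C18 column at 43° C.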
Series [4] concerns Myzus persicae. In words: Myzus persicae spray test (bell pepper plants). Format: in vivo. Particulars: application rate 100 ppm, after 6 days. The method, then: Myzus persicae—Spray Test Solvent: 14 parts by weight of dimethylformamide Emulsifier: alkylaryl polyglycol ether
To produce a suitable active ingredient formulation, 1 part by weight of active ingredient is dissolved with the stated parts by weight of solvent and made up with water containing an emulsifier concentration of 1000 ppm until the desired concentration is attained. To produce further test concentrations, the formulation is diluted with emulsifier-containing water. If the addition of ammonium salts or/and penetrants is required, these are each added in a concentration of 1000 ppm to the formulation solution.
Bell pepper plants (Capsicum annuum) severely infested with the green peach aphid (Myzus persicae) are treated by spraying with the active ingredient formulation in the desired concentration.
After 6 days, the kill in % is determined. 100% means that all of the aphids have been killed; 0% means that none of the aphids have been killed.

The structures appear in SMILES notation. Like-named read-outs stand apart in the source and are kept apart here.

The text below walks through data of patent US20180282323A1, “Mesoionic imidazole derivatives as insecticides” (BAYER CROPSCIENCE AKTIENGESELLSCHAFT, priority 2015, published 2018).

`O=C(Cn1cc(Cl)cn1)c1c([O-])n(Cc2ccc(Cl)nc2)c2cccc[n+]12` [Example I-1-004]: the results for the efficacy with Myzus persicae [1], in the series with Diabrotica balteata and in the series on Myzus persicae [2] were 90%, 100% and 100%, respectively. In series [3], the log p is 1.96.
Molecule `COc1cnn(CC(=O)c2c([O-])n(Cc3cnc(Cl)s3)c3cccc[n+]23)c1` [Example I-1-013] registered an efficacy with Myzus persicae [2] of 100%. In series [3], this molecule had a log p of 1.58. The “efficacy (kill in %)” value in the series on Myzus persicae [4] is recorded as 85%.
Consider `CCSCC(=O)c1c([O-])n(Cc2cnc(Cl)s2)c2cccc[n+]12` [Example I-1-028, 1-[(2-Chloro-1,3-thiazol-5-yl)methyl]-3-[(ethylsulphanyl)acetyl]-1H-imidazo[1,2-a]pyridin-4-ium-2-olate], for which the efficacy in the series on Myzus persicae [1] is 90%; in the series on Diabrotica balteata it was 100%. Also, the pest or weed control at 20 ppm in the series on Myzus persicae [2] (Myzus persicae, 120 h, read-out: efficacy) came out at 100%. Moreover, the chromatographic logP in series [3] and in series [3] (pH 2.7) was 1.99 throughout.
For `CC(=O)c1c([O-])n(Cc2ccc(Cl)nc2)c2cccc[n+]12` [Example I-1-036], the results for the efficacy in the series with Myzus persicae [1], with Diabrotica balteata and in the series with Myzus persicae [2] were 90%, 100% and 100%, respectively. The molecule also returned a log p in series [3] of 1.2.
The molecule `CSc1cnn(CC(=O)c2c([O-])n(Cc3cnc(Cl)s3)c3cccc[n+]23)c1` [Example I-1-044] gave an efficacy with Myzus persicae [2] of 100%. In series [3], this molecule gave a log p of 1.97. Further, the “efficacy (kill in %)” value with Myzus persicae [4] is reported as 80%.
As to `O=C(Cn1cc(C(F)(F)F)cn1)c1c([O-])n(Cc2cnc(Cl)s2)c2cccc[n+]12` [Example I-1-045], the efficacy with Diabrotica balteata was 80%; in the series with Myzus persicae [2] it was 100%. This molecule came in with a log p in series [3] of 2.37. Besides, in the series on Myzus persicae [4], the “efficacy (kill in %)” value is 95%.
The molecule `O=C(Cn1ccnc1Cl)c1c([O-])n(Cc2cnc(Cl)s2)c2cccc[n+]12` [Example I-1-046] had an efficacy with Myzus persicae [2] of 100%. In series [3], this molecule returned a log p of 1.44. Besides, the “efficacy (kill in %)” value in the series on Myzus persicae [4] worked out at 95%.
In turn, `CC(=O)N(CC(=O)c1c([O-])n(Cc2cnc(Cl)s2)c2cccc[n+]12)C1CC1` [Example I-1-062] gave an efficacy in the series on Myzus persicae [2] of 100%. Further, the log p in series [3] came out at 1.58. Moreover, the “efficacy (kill in %)” value in the series on Myzus persicae [4] was determined as 95%.
For `CCOCC(=O)c1c([O-])n(Cc2ccc(Cl)nc2)c2ccc(C)c[n+]12` [Example I-1-113], in that order: 100%, 1.66 and 95%.
With `CCOCC(=O)c1c([O-])n(Cc2ccc(Cl)nc2)c2cccc(C)[n+]12` [Example I-1-114], the efficacy in the series on Myzus persicae [2] turned out to be 100%. This molecule also showed a log p in series [3] of 1.47. In addition, the “efficacy (kill in %)” value in the series on Myzus persicae [4] was found to be 85%.
Consider `CCCNC(=O)c1c([O-])n(Cc2cnc(Cl)s2)c2cccc[n+]12` [Example I-1-129], for which the efficacy in the series with Diabrotica balteata and in the series with Myzus persicae [2] was 100% each time. This molecule displayed a log p in series [3] of 1.98.
Turning to `O=C(NC1CCC1)c1c([O-])n(Cc2cnc(Cl)s2)c2cccc[n+]12` [Example I-1-135], the efficacy in the series on Diabrotica balteata is 80%; in the series on Myzus persicae [2], 90%. In series [3], this molecule came in with a log p of 2.11.
For `O=C(NCc1ccccc1)c1c([O-])n(Cc2cnc(Cl)s2)c2cccc[n+]12` [Example I-1-148], in that order: 100%, 100% and 2.41.
In turn, `COCC(=O)c1c([O-])n(Cc2cnc(Cl)c(Cl)c2)c2cccc[n+]12` [Example I-1-179] registered an efficacy in the series with Myzus persicae [2] of 100%. The molecule also displayed a log p in series [3] of 1.66. Further, in the series with Myzus persicae [4], the “efficacy (kill in %)” value is listed as 95%.
In the case of `COCC(=O)c1c([O-])n(Cc2ccc(Cl)nc2)c2c(C)ccc[n+]12` [Example I-1-193], in the series on Myzus persicae [2], the efficacy is recorded as 100%. Moreover, the log p in series [3] was 1.38. Besides, the “efficacy (kill in %)” value with Myzus persicae [4] worked out at 100%.
On to `Cc1ccc[n+]2c(C(=O)NC3CC3)c([O-])n(Cc3cnc(Cl)s3)c12` [Example I-1-203], for which the efficacy in the series on Diabrotica balteata and with Myzus persicae [2] was 100% each time. The “log p a)” value in series [3] is given as 1.93.
Turning to `Cc1ccc[n+]2c(C(=O)Nc3cccc(C(F)(F)F)c3)c([O-])n(Cc3cnc(Cl)s3)c12` [Example I-1-216], the efficacy in the series on Diabrotica balteata and with Myzus persicae [2] was 100% throughout. The “log p a)” value in series [3] stood at 4.06.
In the case of `O=C(Nc1ccc(F)cc1)c1c([O-])n(Cc2cnc(Cl)s2)c2cccc[n+]12` [Example I-1-227], the efficacy in the series with Diabrotica balteata and in the series with Myzus persicae [2] was 100% each time. For the same molecule, in series [3], the “log p a)” value is listed as 2.82. The “efficacy (kill in %)” value with Myzus persicae [4] was found to be 99%.
Consider `O=C(Nc1c(F)cccc1F)c1c([O-])n(Cc2cnc(Cl)s2)c2cccc[n+]12` [Example I-1-231], for which the efficacy in the series on Diabrotica balteata and in the series with Myzus persicae [2] was 100% in each case. Further, the “log p a)” value in series [3] is 2.43. The “efficacy (kill in %)” value in the series with Myzus persicae [4] was 99%.
Take `O=C(Nc1ccc(F)cc1F)c1c([O-])n(Cc2cnc(Cl)s2)c2cccc[n+]12` [Example I-1-232]: the efficacy in the series with Diabrotica balteata turned out to be 100%; in the series with Myzus persicae [2], 90%. In series [3], the “log p a)” value is given as 3.13.
In the case of `Cc1cccc(NC(=O)c2c([O-])n(Cc3cnc(Cl)s3)c3cccc[n+]23)c1` [Example I-1-235], the efficacy was determined as 100% with Diabrotica balteata and 90% in the series on Myzus persicae [2]. The “log p a)” value in series [3] came out at 3.21.
As for `CNC(=O)c1c([O-])n(C(C)c2ccc(Cl)nc2)c2cccc[n+]12` (stereo not drawn) [Example I-1-246], the efficacy in the series with Myzus persicae [1] was 90%; in the series on Diabrotica balteata, 100%; in the series with Myzus persicae [2] it was 90%. For the same molecule, the “log p a)” value in series [3] is on record as 1.41.
In turn, `Cc1ccc[n+]2c(C(=O)NC3(C#N)CC3)c([O-])n(Cc3ccc(Cl)nc3)c12` [Example I-1-252] yielded an efficacy in the series on Myzus persicae [2] of 90%. Moreover, the “log p a)” value in series [3] is reported as 1.78. Also, the “efficacy (kill in %)” value with Myzus persicae [4] was found to be 95%.
Turning to `CCCNC(=O)c1c([O-])n(Cc2cnc(Cl)s2)c2c(C)ccc[n+]12` [Example I-1-267], the values for the efficacy in the series with Myzus persicae [1] and in the series with Diabrotica balteata were 90% and 100%, respectively. Also, the “log p a)” value in series [3] is 2.26.
Consider `O=C(Nc1c(Cl)cccc1Cl)c1c([O-])n(Cc2cnc(Cl)s2)c2cccc[n+]12` [Example I-1-282], for which the efficacy with Myzus persicae [1] is listed as 90%; in the series on Diabrotica balteata it was 100%; with Myzus persicae [2], 100%. In series [3], the “log p a)” value came to 2.8.
In the case of `O=C(Nc1c(F)cccc1Cl)c1c([O-])n(Cc2cnc(Cl)s2)c2cccc[n+]12` [Example I-1-283], the efficacy in the series on Myzus persicae [1], in the series on Diabrotica balteata and in the series with Myzus persicae [2] was 100% in each case. In addition, in series [3], the “log p a)” value turned out to be 2.57.
As for `O=C(Nc1ncccc1F)c1c([O-])n(Cc2cnc(Cl)s2)c2cccc[n+]12` [Example I-1-284], the efficacy in the series on Myzus persicae [1] is recorded as 90%; in the series on Diabrotica balteata it was 80%; in the series on Myzus persicae [2] it was 100%. In series [3], the “log p a)” value amounted to 1.68.
As to `COC(=O)c1c([O-])n(C(C)c2cnc(Cl)s2)c2c(C)ccc[n+]12` (stereo not drawn) [Example I-1-287], the efficacy in the series on Diabrotica balteata is 80%; in the series on Myzus persicae [2], 100%. Moreover, the “log p a)” value in series [3] was 1.68.
In the case of `Cc1ccc[n+]2c(C(=O)Nc3c(F)cccc3F)c([O-])n(C(C)c3cnc(Cl)s3)c12` (stereo not drawn) [Example I-1-288], the efficacy in the series on Diabrotica balteata and with Myzus persicae [2] was 100% in each case. The “log p a)” value in series [3] is listed as 2.76.
Consider `Cc1ccc[n+]2c(C(=O)COC(C)C)c([O-])n(Cc3cnc(Cl)s3)c12` [Example I-1-292], for which the efficacy in the series with Myzus persicae [1] came out at 90%; in the series with Diabrotica balteata, 100%; with Myzus persicae [2] it was 100%. In addition, the “log p a)” value in series [3] is reported as 1.97.

For orientation: chromatographic logP means lipophilicity estimated from chromatographic retention.
